Experimental data as given in US10960054B2, “Fracture targeted bone regeneration through parathyroid hormone receptor stimulation” (Purdue Research Foundation, priority 2016, dated 2021).

Tests used:
[1] = biological target: T1, PTHR1 (R^0 conformation) (Homo sapiens, UniProt Q03431); conditions: direct comparative studies; cited from earlier work
T1 sequence (Q03431 27-593): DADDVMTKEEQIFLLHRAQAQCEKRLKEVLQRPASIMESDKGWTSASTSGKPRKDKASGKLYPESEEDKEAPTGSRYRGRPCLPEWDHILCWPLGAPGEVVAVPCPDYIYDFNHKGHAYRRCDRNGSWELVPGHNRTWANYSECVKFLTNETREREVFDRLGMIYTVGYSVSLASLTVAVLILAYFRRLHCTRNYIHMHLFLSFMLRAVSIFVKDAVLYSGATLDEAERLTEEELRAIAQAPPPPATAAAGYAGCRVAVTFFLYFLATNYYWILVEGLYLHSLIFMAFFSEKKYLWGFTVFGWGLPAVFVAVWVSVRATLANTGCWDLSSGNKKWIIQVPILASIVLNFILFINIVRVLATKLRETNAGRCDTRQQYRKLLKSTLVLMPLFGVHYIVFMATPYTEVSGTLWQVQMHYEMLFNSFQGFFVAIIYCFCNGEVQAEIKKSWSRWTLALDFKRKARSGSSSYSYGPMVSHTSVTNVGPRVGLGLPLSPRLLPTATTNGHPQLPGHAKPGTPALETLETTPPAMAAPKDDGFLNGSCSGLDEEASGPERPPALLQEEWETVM

[2] = biological target: T2, PTHR1 (Homo sapiens, UniProt Q03431); conditions: time-course washout assay; cited from earlier work
T2 sequence (Q03431 27-593): T1 sequence (Q03431 27-593)

[3] = test system: femoral fracture callus; experiment: Murine stabilized femoral fracture, microCT analysis of fracture callus; format: in vivo, mice; conditions: for fracture callus densities / bone volume: 3 nmol/kg/day subcutaneous, 14, 28 or 56 days, FIG. 7
[4] = test system: MC3T3E1 cells; experiment: Gene expression ratio of bone markers in MC3T3E1 cells; format: cell-based
Procedure: (§1) Referring now to FIG. 4, alkaline phosphatase (ALP) expression ratio for both targeted and non-targeted PTHrP were analyzed in MC3T3E1 cells. The ALP ratio is calculated by (Treated ALP expression/Vehicle control ALP expression). Higher expression levels are associated with greater osteoblast activity and is a key protein involved in bone mineralization.
as §1, with “5, osteopontin (OPN)” for “4, alkaline phosphatase (ALP)”, “OPN” for “ALP”
Referring now to FIG. 6, gene expression ratio of several key bone markers for both targeted and non-targeted PTHrP were analyzed in MC3T3E1 cells. Activity markers include alkaline phosphatase (ALP), Collagen I-alpha (Col1-alpha), osteocalcin (OC), osteoprotegerin (OPG), osteopontin (OPN, and Osterix (OSX). The gene expression ratio is calculated by (Treated gene expression/Vehicle control gene expression). The targeted PTHrP has activity as low as 1 pM.

[5] = test system: liver and kidneys; experiment: Blind histopathology of liver and kidney after 28 days of treatment; conditions: 31 nmol/kg/day subcutaneous
Procedure: Referring now to Table 1, mice were treated with 31 nmol/kg/day subcutaneous injections of PTHrPD10 (“Targeted Drug”) or saline. Swiss ND4 mice were treated for 28 days. Mice were sacrificed at the end of the study and liver and kidneys were excised. Organs were fixed in formalin and paraffin sections were made from each. A veterinary pathologist performed a randomized blind analysis on the organs.

Q: Which “affinity for the R^0 state” value [1] does the source give for “SVSEIQLMHNLGKHLNSMERVEWLRKKLQDVHNF [PTH(1-34)]” here?
A: The value was “much higher affinity for R^0 than PTHrP(1-36)”.

Q: What about the “duration of the cAMP response” value [2] of the same sequence?
A: Its value is “more prolonged response than PTHrP(1-36)”.

Q: With “SVSEIQLMHNLGKHLNSMERVEWLRKKLQDVHNFVALGAPLAPRDADDDDDDDDDD (PTH1-46D10) [PTH 1-46D10]” as the sequence, how does the “bone density (microCT)” value ([3]; 2 weeks, fracture callus, vs saline, FIG. 3) read?
A: The value was “statistically denser than saline controls”.

Q: Which results are given for “VSEHQLLHDKGKSIQDLRRRFFLHHLIAEIHTAGIRATSEVSPNSDDDDDDDDDD [PTHrP1-46D10]”?
A: fracture callus densities / bone volume ([3]; listed as targeted PTHrP): Greater densities can be observed in the targeted PTHrP over the free PTHrp at every time point; fracture callus densities / bone volume ([3]; listed as targeted drug): not only improves fracture healing but that it also accelerates fracture healing; bone densities around fractures (microCT) ([3]; 31 nmol/kg/day, daily for 4 weeks, closed femoral fracture, FIG. 1): increased bone densities around fractures significantly higher than that of free PTHrP and Saline; trabecular spacing (microCT) ([3]; 4 weeks, fracture callus, vs saline, FIG. 2): statistically tighter spacing than does the saline control; concentration at which gene expression activity is seen (activity as low as) ([4]; ALP, Col1-alpha, OC, OPG, OPN, OSX, FIG. 6): ≤ 1 pM; osteopontin (OPN) expression ratio ([4]; treated/vehicle control, FIG. 5): does not reduce the efficacy of the drug; alkaline phosphatase (ALP) expression ratio ([4]; treated/vehicle control, standardized to GAPDH, FIG. 4): does not reduce the efficacy of the drug; toxicity, overall pathologist assessment of liver and kidney [5]: No detectable toxicity was observed
